Laboratory results: patent US9943599B2, “Therapeutic applications of calcium electroporation to effectively induce tumor necrosis” (Herlev Hospital, priority 2011, dated 2018)
Read-outs that look alike come from different tables or passages of the source.

Legend:
[1] = system: N32 (rat brain glioma) tumors; experiment: Calcium electroporation of brain tumor, MRI and H&E; type: in vivo, Sprague Dawley rats
Procedure: N32, a rat brain glioma derived tumor cell line, and 7-11 weeks old Sprague Dawley male rats (Taconic, Hudson N.Y.) were used for the in vivo experiments. The cells were tested by rapid MAP27 panel (Taconic, Hudson N.Y.) before use without signs of infection. Inoculation of 3,000 N32 cells in 5 μl at the stereotaxic coordinates; X=2, Y=1, Z=−4 was performed and verification of tumor by MRI prior to treatment was performed two weeks after inoculation. HYPNORM™-DORMICUM™ (fentanyl/fluanisone/midazolam; VetaPharma, Leeds, U K and Roche, Basel, Switzerland) was used for anesthesia complemented with RIMADYL® (Carprofen) (Pfizer ApS, Ballerup, Denmark) for pain relief after surgery. Tumors were treated two weeks after inoculation with 1) injection of 14 μl calcium-chloride solution (168 mM) and electroporation (32 pulses of 100V for 100 μs and a frequency of 1 Hz) using an 8-electrode device developed for treatment of brain tumors, a square wave electroporator (CLINIPORATOR®, IGEA, Modena, Italy), and a switch box (Sonion), or 2) injection of 14 μl calcium-chloride solution (168 mM) and placement of electrodes but no pulses applied. MRI was performed at day 1, 3, 6, and 8 after treatment. […] The extend of necrosis, the presence of macrophages and the influence on neurons and glia cells were evaluated by H&E, PAS, NF, and GFAP staining, respectively.

[2] = system: DC-3F, K-562 and Lewis Lung Carcinoma cells; experiment: Hypothetical sonoporation in vitro, MTT assay; type: cell-based, Chinese hamster, human, murine
Procedure: Three cell lines are used for in vitro experiments, DC-3F, a transformed Chinese hamster lung fibroblast cell line; K-562, a human leukemia cell line; and Lewis Lung Carcinoma, a murine lung carcinoma cell line. All cell lines are tested for mycoplasma. Cells are maintained in RPMI 1640 culture medium with 10% fetal calf serum, penicillin and streptomycin at 37° C. and 5% CO2. After harvesting, cells are washed and diluted in HEPES buffer containing 10 mM HEPES, 250 mM sucrose and 1 mM MgCl2 in sterile. The cell suspension with 0, 0.5, 1 and 3 mM CaCl2 is added to a sample tube which is placed in the ultrasound exposure chamber and exposed to low-frequency ultrasound at room temperature. A function generator is programmed to provide a wave of selected voltage, duty cycle, burst length, and total exposure time.
After 20 min at 37° C. and 5% CO2 cells are diluted in RPMI 1640 culture medium with 10% fetal calf serum and penicillin-streptomycin and seeded in 96-well plates at a concentration of 3.1×10^4 cells/100 μl.
Difference between cells treated with and without ultrasound in identical buffer is assessed using two-way analysis of variance CANOVA) with post least-squares-means test with Bonferroni correction for multiple comparisons.

[3] = system: DC-3F, K-562 and Lewis Lung Carcinoma cells; experiment: In vitro electroporation, MTT viability assay; type: cell-based, Chinese hamster, human, murine
Procedure: Three cell lines are used for in vitro experiments, DC-3F, a transformed Chinese hamster lung fibroblast cell line; K-562, a human leukemia cell line; and Lewis Lung Carcinoma, a murine lung carcinoma cell line. DC-3F cells were tested for mycoplasma in January 2011, K-562 cells were tested for mycoplasma in 2008 prior to freezing and thawing just before experiments were performed, and Lewis Lung cells were tested by rapid MAP27 panel (Taconic, Hudson N.Y.) in July 2011 without signs of infection. Cells are maintained in RPMI 1640 culture medium (GIBCO™, Life Technologies, Carlsbad, Calif.) with 10% fetal calf serum (GIBCO™, Life Technologies, Carlsbad, Calif.), penicillin and streptomycin at 37° C. and 5% C02. After harvesting, cells are washed and diluted in HEPES buffer containing 10 mM HEPES (Lonza, Basel, Switzerland), 250 mM sucrose and 1 mM MgCl2 in sterile water. 270 μl cell suspension (6.1×10^6 cells/ml) and 30 μl CaCl2, or in the case of controls, HEPES buffer, are electroporated in 4 mm wide cuvettes with aluminium electrodes (Molecular BioProducts, Inc., San Diego, Calif.). Cooled cells (8° C.) are exposed to 8 pulses of 1.2 kV/cm with pulse duration of 99 μs (DC-3F and K562 cells) or 8 pulses of 1.4 kV/cm with pulse duration of 99 μs (Lewis Lung Carcinoma) using a BTX® T820 square wave electroporator (BTX®, Harvard Apparatus, Holliston, Mass.). The electroporation parameters are chosen after optimization to obtain high permabilisation and cell survival. After 20 min at 37° C. and 5% CO2 cells are diluted in RPMI 1640 culture medium with 10% fetal calf serum and penicillin-streptomycin and seeded in 96-well plates at a concentration of 3.1×10^4 cells/100 μl.
Difference between electroporated and non-electroporated cells in identical buffer is assessed using two-way analysis of variance (ANOVA) with post least-squares-means test with Bonferroni correction for multiple comparisons.

[4] = system: DC-3F cells; experiment: Calcium electroporation with two calcium sources, MTT assay; type: cell-based, Chinese hamster; details: 1 mM, 8 pulses, 0-1.6 kV/cm; MTT 1 day after treatment
Procedure: DC-3F cells were electroporated as described in example 1 with 1 mM calcium chloride (prepared by SAD, Denmark) or 1 mM calcium glubionate (Sandoz, Holzkirchen, Germany). The calcium concentration was chosen based on the experiment described in example 1 where 1 mM calcium is the lowest concentration inducing high cell death. The cells were electroporated with 8 pulses of […] at 1 Hz and increasing electric field (0-1.6 kV/cm). After 20 min at 37° C. and 5% CO2 cells were diluted in RPMI 1640 culture medium with 10% fetal calf serum and penicillin-streptomycin and seeded in 96-well plates at a concentration of 3.1×10^4 cells/100 μl.

[Ca+2].[Cl-].[Cl-] [calcium chloride] was tested, and the “tumor size (MRI, H&E)” value ([1]; 14 μl 168 mM calcium alone, no pulses, 6 days after the treatment) was “no effect on tumor size”, the “tumor (MRI, H&E)” value ([1]; 14 μl 168 mM calcium chloride with electroporation (32 pulses 100V), 8 days after the treatment) was “eliminated” and the cell death ([2]; with ultrasound, 0 to 3 mM calcium) was “dose dependent cell death”. The “effect on cell viability” value ([2]; without ultrasound, high calcium concentrations) was “no effect on cell viability”, the EC50 ([3]; all electroporated cell lines, 8 pulses 1.2-1.4 kV/cm, 99 μs, MTT 1 and 2 days after treatment, read-out: EC50 (decrease in viability)) was 570 µM and the “lowest concentration inducing high cell death” value ([3]; electroporated) was 1 mM. The “calcium concentration from which viability decreases significantly (p<0.01)” value ([3]; electroporated, all cell lines) was ≥ 0.5 mM, the “cell death after calcium electroporation” value ([3]; electroporated, all three cell lines) was “dose dependent cell death” and the “effect on cell viability” value ([3]; non-electroporated cells, high calcium concentrations) was “no effect on cell viability”. The EC50 ([3]; range over the electroporated cell lines, read-out: EC50 range (decrease in viability)) was 350 to 790 µM, the “EC50 (decrease in viability)” value ([3]; without electroporation) was “not reached” and the “effect of calcium electroporation on cell viability, calcium chloride versus calcium glubionate” value [4] was “no difference”.
